Results from PMC2645942 (Journal of medicinal chemistry, 2008).

Tests used:
[1] = biological target: αY209Cβγ (α1Y209Cβ2γ2 GABAA receptor) (Rattus norvegicus, UniProt P18508+P62813, INS375LLRMFSFK/Y236C); assay: Radioligand binding, αY209Cβγ mutant
[2] = biological target: αD97Cβγ (α1D97Cβ2γ2 GABAA receptor) (Rattus norvegicus, UniProt P18508+P62813, D124C/INS375LLRMFSFK); assay: Radioligand binding, αD97Cβγ mutant
[3] = biological target: αβγF77C (α1β2γ2F77C GABAA receptor) (Rattus norvegicus, UniProt P18508+P62813, F115C/INS375LLRMFSFK); assay: Radioligand binding, αβγF77C mutant

Measured: specific binding of radioligand

CCOC(=O)c1ncn2c1CN(C)C(=O)c1cc(F)ccc1-2 [Ro15-1788, ethyl 8-fluoro-5,6-dihydro-5-methyl-6-oxo-4H-imidazo[1,5-a][1,4]benzodiazepine-3-carboxylate]
not measurable: all assays above

CN1C(=O)CN=C(c2ccccc2F)c2cc([N+](=O)[O-])ccc21 [flunitrazepam]
not measurable: all assays above
